Test results as given in patent publication US12060347B2 (BRISTOL-MYERS SQUIBB COMPANY, priority 2016, dated 2024).
pIC50: −log10 of the molar value. Where a name gives a salt, the structure may show the parent alone.

Target: T1, human PAR4 (Homo sapiens, UniProt Q96RI0)
T1 construct: expressed in transfected cells; host or cells: HEK293 PAR4 Clone 1.2A (BMS Arctic ID 383940)
T1 sequence (Q96RI0 18-385): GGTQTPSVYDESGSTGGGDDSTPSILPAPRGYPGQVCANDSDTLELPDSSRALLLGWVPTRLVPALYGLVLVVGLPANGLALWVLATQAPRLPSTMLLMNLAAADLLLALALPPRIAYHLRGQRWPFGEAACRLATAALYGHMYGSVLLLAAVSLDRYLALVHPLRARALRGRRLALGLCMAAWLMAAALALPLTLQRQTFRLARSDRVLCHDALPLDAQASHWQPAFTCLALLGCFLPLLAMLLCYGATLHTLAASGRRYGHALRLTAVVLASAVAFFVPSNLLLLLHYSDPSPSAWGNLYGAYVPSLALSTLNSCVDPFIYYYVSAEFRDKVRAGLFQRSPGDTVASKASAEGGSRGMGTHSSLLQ
Test: PAR4 FLIPR assay: antagonism of agonist-peptide-induced calcium mobilization in PAR4-expressing HEK293 cells
Type: cell-based
Settings: H-Ala-Phe(4-F)-[…]NH2-induced intracellular calcium mobilization, 11-point curves

| Compound | pIC50 |
| --- | --- |
| COc1cnc2c(-c3nc4cc(F)c(O[C@@H](C)[C@@H](C)OC(=O)Nc5ccc(NC(C)=O)nc5)cc4s3)cc(C)cc2n1 [Example 601, (2R,3S)-3-((5-fluoro-2-(2-methoxy-7-methylquinoxalin-5-yl)benzo[d]thiazol-6-yl)oxy)butan-2-yl (6-acetamidopyridin-3-yl)carbamate] | 8.46 |
| Cc1cc(-c2nc3cccc(OCC(=O)Nc4ccccc4)c3s2)c2ncc(OC(F)F)nc2c1 [Example 82, 2-(2-(2-(difluoromethoxy)-7-methylquinoxalin-5-yl)benzo[d]thiazol-7-yloxy)-N-phenylacetamide] | 6.55 |
| COc1cnc2c(-c3nc4cc(F)c(O[C@@H](C)[C@@H](C)OC(=O)Nc5cnc(OCCO)nc5)cc4s3)cc(C)cc2c1 [Example 514, (2R,3S)-3-((5-fluoro-2-(3-methoxy-6-methylquinolin-8-yl)benzo[d]thiazol-6-yl)oxy)butan-2-yl (2-(2-hydroxyethoxy)pyrimidin-5-yl)carbamate] | 8.72 |
| COc1cnc2c(-c3nc4c(C(O)C5(C(F)(F)F)CCC5)cc(OC)cc4s3)cc(Cl)cc2c1 (stereo not drawn) [Example 656, (2-(6-chloro-3-methoxyquinolin-8-yl)-6-methoxybenzo[d]thiazol-4-yl)(1-(trifluoromethyl)cyclobutyl)methanol] | 8.62 |
| COc1cnc2c(-c3cc4cc(OC)c(F)cc4o3)cc(C)cc2n1 [Example 120, 5-(6-fluoro-5-methoxybenzofuran-2-yl)-2-methoxy-7-methylquinoxaline] | 7.55 |
| COc1cnc2c(-c3nc4cc(F)c(O[C@@H](C)[C@@H](C)OC(=O)Nc5cnc(CCO)nc5)cc4s3)cc(C)cc2n1 [Example 565, (2R,3S)-3-((5-fluoro-2-(2-methoxy-7-methylquinoxalin-5-yl)benzo[d]thiazol-6-yl)oxy)butan-2-yl (2-(2-hydroxyethyl)pyrimidin-5-yl)carbamate] | 8.52 |
| COc1cnc2c(-c3nc4cc(F)c(O[C@@H](C)[C@@H](C)OC(=O)Nc5ccc(C(F)(F)F)nc5)cc4s3)cc(Cl)cc2c1 [Example 783, (2R,3S)-3-((2-(6-chloro-3-methoxyquinolin-8-yl)-5-fluorobenzo[d]thiazol-6-yl)oxy)butan-2-yl (6-(trifluoromethyl)pyridin-3-yl)carbamate] | 8.38 |
| Cc1ccc(-c2cc3ccccc3o2)c2ncc(OC(F)F)nc12 [Example 133, 5-(benzofuran-2-yl)-2-(difluoromethoxy)-8-methylquinoxaline] | 6.24 |
| C[C@H](Oc1cc2sc(-c3cc(Cl)cc4cc(OC(F)F)cnc34)nc2cc1F)[C@@H](C)OC(=O)Nc1cnc(OCCO)nc1 [Example 515, (2R,3S)-3-((2-(6-chloro-3-(difluoromethoxy)quinolin-8-yl)-5-fluorobenzo[d]thiazol-6-yl)oxy)butan-2-yl (2-(2-hydroxyethoxy)pyrimidin-5-yl)carbamate] | 8.59 |
| COc1cnc2c(-c3nc4c(Cl)c(F)c(OC[C@@H](C)OC(=O)Nc5ccc(C#N)nc5)cc4s3)cc(C)cc2n1 [Example 371, (R)-1-((4-chloro-5-fluoro-2-(2-methoxy-7-methylquinoxalin-5-yl)benzo[d]thiazol-6-yl)oxy)propan-2-yl (6-cyanopyridin-3-yl)carbamate] | 8.74 |
| COCc1cnc2c(-c3nc4c(OC)cccc4s3)cc(C)cc2n1 [Example 259, 4-methoxy-2-(2-(methoxymethyl)-7-methylquinoxalin-5-yl)benzo[d]thiazole] | 7.85 |
| COc1cnc2c(-c3nc4cc(F)c(O[C@@H](C)[C@@H](C)OC(=O)Nc5ccc(C(N)=O)nc5)cc4s3)cc(C)cc2n1 (stereo in doubt) [Example 391, (2R,3S)-3-((5-fluoro-2-(2-methoxy-7-methylquinoxalin-5-yl)benzo[d]thiazol-6-yl)oxy)butan-2-yl (6-carbamoylpyridin-3-yl)carbamate] | 8.70 |
| COc1cnc2c(-c3nc4cc(F)c(O[C@@H](C)[C@@H](C)OC(=O)Nc5ccc(C(=O)O)nc5)cc4s3)cc(C)cc2n1 [Example 523, 5-(((((2R,3S)-3-((5-fluoro-2-(2-methoxy-7-methylquinoxalin-5-yl)benzo[d]thiazol-6-yl)oxy)butan-2-yl)oxy)carbonyl)amino)picolinic acid, TFA] | 8.59 |
| COc1cnc2c(-c3nc4cc(F)c(O[C@@H](C)[C@@H](C)OC(=O)Nc5cccnc5)cc4s3)cc(Cl)cc2c1 [Example 788, (2R,3S)-3-((2-(6-chloro-3-methoxyquinolin-8-yl)-5-fluorobenzo[d]thiazol-6-yl)oxy)butan-2-yl pyridin-3-ylcarbamate] | 8.51 |
| COCc1cnc2c(-c3nc4c(CN(C)C)cc(OC)cc4s3)cc(C)cc2n1 [Example 159, 1-(6-methoxy-2-(2-(methoxymethyl)-7-methylquinoxalin-5-yl)benzo[d]thiazol-4-yl)-N,N-dimethylmethanamine] | 7.60 |
| COc1cnc2c(-c3nc4cc(F)c(OC[C@@H](C)OC(=O)Nc5cnc6[nH]ccc6c5)cc4s3)cc(C)cc2n1 [Example 354, (R)-1-((5-fluoro-2-(2-methoxy-7-methylquinoxalin-5-yl)benzo[d]thiazol-6-yl)oxy)propan-2-yl 1H-pyrrolo[2,3-b]pyridin-5-ylcarbamate] | 8.92 |
| COc1cnc2c(-c3nc4cc(F)c(O[C@H](C)COC(=O)Nc5cccnc5)cc4s3)cc(C)cc2n1 [Example 344, (R)-2-((5-fluoro-2-(2-methoxy-7-methylquinoxalin-5-yl)benzo[d]thiazol-6-yl)oxy)propyl pyridin-3-ylcarbamate] | 7.96 |
| Cc1cc(-c2nc3cccc(CO)c3s2)c2ncc(OC(F)F)nc2c1 [Example 64, (2-(2-(difluoromethoxy)-7-methylquinoxalin-5-yl)benzo[d]thiazol-7-yl)methanol] | 8.13 |

More lines, now with the values ahead:

| pIC50 | Compound |
| --- | --- |
| 6.92 | COc1cnc2c(-c3nc4c(C)cc(OCCNS(=O)(=O)c5ccc(F)cc5)cc4s3)cc(C(C)(C)O)cc2n1 [Example 242, 4-fluoro-N-(2-((2-(7-(2-hydroxypropan-2-yl)-2-methoxyquinoxalin-5-yl)-4-methylbenzo[d]thiazol-6-yl)oxy)ethyl)benzenesulfonamide] |
| 7.80 | COc1cnc2c(-c3nc4c(Cl)c(F)c(OCCNC(=O)Nc5cccnc5)cc4s3)cc(C)cc2n1 [Example 519, 1-(2-((4-chloro-5-fluoro-2-(2-methoxy-7-methylquinoxalin-5-yl)benzo[d]thiazol-6-yl)oxy)ethyl)-3-(pyridin-3-yl)urea] |
| 8.80 | COCc1cnc2c(-c3nc4ccc(OCCNS(=O)(=O)c5ccccc5)cc4s3)cc(C)cc2n1 [Example 106, N-(2-(2-(2-(methoxymethyl)-7-methylquinoxalin-5-yl)benzo[d]thiazol-6-yloxy)ethyl)benzenesulfonamide] |
| 7.14 | COc1cnc2c(-c3nc4c(Cl)c(F)c(OC[C@@H](C)OC(=O)Nc5cnccc5C)cc4s3)cc(C)cc2n1 [Example 376, (R)-1-((4-chloro-5-fluoro-2-(2-methoxy-7-methylquinoxalin-5-yl)benzo[d]thiazol-6-yl)oxy)propan-2-yl (4-methylpyridin-3-yl) carbamate] |
| 7.89 | COc1cnc2c(-c3nc4c(Cl)c(F)c(OCCCC(=O)Nc5cccnc5)cc4s3)cc(C)cc2n1 [Example 518, 4-((4-chloro-5-fluoro-2-(2-methoxy-7-methylquinoxalin-5-yl)benzo[d]thiazol-6-yl)oxy)-N-(pyridin-3-yl)butanamide] |
| 7.92 | COc1cnc2c(-c3nc4c(C)cc(OCCOC(=O)Nc5ccccc5)cc4s3)cc(C)cc2n1 [Example 110, 2-(2-(2-methoxy-7-methylquinoxalin-5-yl)-4-methylbenzo[d]thiazol-6-yloxy)ethyl phenylcarbamate] |
| 8.00 | COc1cnc2c(-c3nc4c(Cl)c(C)c(OC)cc4s3)cc(C)cc2n1 [Example 299, 4-chloro-6-methoxy-2-(2-methoxy-7-methylquinoxalin-5-yl)-5-methylbenzo[d] thiazole] |
| 8.48 | COc1cnc2c(-c3nc4c(C)cc(OCCNS(=O)(=O)c5ccc(F)cc5)cc4s3)cc(C)cc2n1 [Example 26, 4-fluoro-N-(2-((2-(2-methoxy-7-methylquinoxalin-5-yl)-4-methylbenzo[d]thiazol-6-yl)oxy)ethyl)benzenesulfonamide] |
| 8.00 | COc1cc(F)cc(C(O)c2cc(OC)cc3sc(-c4cc(C)cc5nc(OC)cnc45)nc23)c1 (stereo not drawn) [Example 675, (3-fluoro-5-methoxyphenyl)(6-methoxy-2-(2-methoxy-7-methylquinoxalin-5-yl)benzo[d]thiazol-4-yl)methanol] |
| 8.57 | COc1cnc2c(-c3nc4cc(F)c(OC[C@@H](C)OC(=O)Nc5ccncc5)cc4s3)cc(C)cc2n1 [Example 349, (R)-1-((5-fluoro-2-(2-methoxy-7-methylquinoxalin-5-yl)benzo[d]thiazol-6-yl)oxy)propan-2-yl pyridin-4-ylcarbamate] |
| 8.36 | COc1cnc2c(-c3nc4cc(F)c(OC[C@@H](C)OC(=O)Nc5ccc(F)nc5)cc4s3)cc(C)cc2n1 [Example 348, (R)-1-((5-fluoro-2-(2-methoxy-7-methylquinoxalin-5-yl)benzo[d]thiazol-6-yl)oxy)propan-2-yl (6-fluoropyridin-3-yl)carbamate] |
| 8.82 | COc1cnc2c(-c3nc4cc(F)c(OCCOC(=O)Nc5ccc(F)nc5)cc4s3)cc(C)cc2n1 [Example 340, 2-((5-fluoro-2-(2-methoxy-7-methylquinoxalin-5-yl)benzo[d]thiazol-6-yl)oxy)ethyl (6-fluoropyridin-3-yl)carbamate] |
